Experiments:
[1] = tested on: dogs; conditions: exogenous deuterium oxide; cited from earlier work
[2] = tested on: Ehrlich ascites tumor (EAC); test: Survival of Ehrlich ascites tumor-bearing mice, intraperitoneal perfusion (lavage) with deuterium oxide and 5-FU; format: in vivo, ICR mice; conditions: i.p., 10 days; for MST: control 14.1 ± 1.9
Description: Studying 1: Efficacy of intraperitoneal perfusion (lavage) with deuterium oxide in combination with 5-fluorouracil on Ehrlich ascites tumor (EAC)-bearing mice.
Laboratory animal: 4 to 5 week-aged male ICR mice, provided by Shanghai SIPPR-BK Laboratory Animal Co. Ltd.
1. Modeling: EAC ascitic fluid was taken and adjusted to 1×10^7 cells/ml, which was inoculated into the peritoneal cavity of mice at 0.1 ml/mouse. 2. Grouping and dosing: the animals were randomized 3 days after inoculation, and meanwhile drugs were given to mice in each group, following the dosing scheme shown in Table 10.
In Table 10, “Sodium chloride deuterium oxide solution 0.1 ml/animal+5-FU 20 mg/kg” means that each mouse was given 0.1 ml sodium chloride deuterium oxide solution, in which 5-FU had been dissolved to make a dose of 20 mg/kg.
After the dosing, ascitic fluid was taken from 3 mice from each group, the volume of the ascitic fluid was measured, the number of tumor cells in the ascitic fluid was counted, and the rest of animals were continuously fed. Median survival time (MST) was recorded for animals in each group to evaluate the survival time for each group.
The comparison between the treatment group and the control group was expressed by T/C (%) which is calculated by the following equation: […]
T MST: MST of the treatment group; C MST: MST of the negative control group.
The evaluation criterion uses 125% as a cut-off threshold. When T/C %≧125%, effective, otherwise ineffective.
The mean value was expressed in X±SD. Inter-group analysis was statistically performed with t test. The results were statistically analyzed using SPSS (Statistical Package for the Social Science) 17.0.

[3] = tested on: human colon cancer HCT-116 cells inoculated into the peritoneal cavity; test: Survival of nude mice bearing HCT-116 cells, 42° C. intraperitoneal retention lavage with hydroxyethyl starch or sodium chloride deuterium oxide solution and 5-FU; format: in vivo; conditions: 42° C. NS 10 ml/kg + 5-FU 20 mg/kg, i.p. lavage x 5
Description: Comparison of survival time of nude mice bearing human colon cancer HCT-116 cells upon 42° C. hyperthermic intraperitoneal retention lavage using a hydroxyethyl starch deuterium oxide solution in combination with 5-FU and using a sodium chloride deuterium oxide solution in combination with 5-FU.
Animal: 4 to 5 week-aged male nude mice, provided by Shanghai SIPPR-BK Laboratory Animal Co. Ltd.
Cell lines: human colon cancer cell line HCT-116 was provided by NANJING KEYGEN BIOTECH. CO., LTD.
Modeling: 0.2 ml suspension of HCT-116 cancer cells containing 1×10^7 cells/ml (2×10^6 cells in total) was inoculated into the peritoneal cavity of the nude mice.
Grouping and dosing: the mouse model was established 7 to 8 days after inoculation into the nude mice, and the mice were randomized with 18 animals/group.
5-FU was separately dissolved in the hydroxyethyl starch deuterium oxide solution at 42° C., and in the sodium chloride deuterium oxide solution at 42° C., for intraperitoneal lavage of tumor-bearing mice.
1). […]
The peritoneal cavity of nude mice was lavaged with the above compositions which were retained for 20 min in the peritoneal cavity after being introduced, which was performed once a day for 5 successive times. The body weight and abdomen circumference of the nude mice were measured on each day before administration of the drugs, and the daily living status of mice was observed. […]

Row | SMILES | concentration in the body that causes a toxic effect [1] [%] | T/C(%) ([2]; 5-FU 20 mg/kg in NS) | MST ([2]; 5-FU 20 mg/kg in NS) [days] | T/C(%) ([2]; 5-FU 30 mg/kg in NS) | MST ([2]; 5-FU 30 mg/kg in NS) [days] | T/C(%) [3] [%] | MST ([3]; control 12.4 ± 2.9) [days]
1 | [2H]O[2H] [Deuterium oxide] | 30 |  |  |  |  |  | 
2 | O=c1[nH]cc(F)c(=O)[nH]1 [Example 5-FU, 5-fluorouracil] |  | 154.6 | 21.8 ± 2.9 | 158.1 | 22.3 ± 4.9 | 138.7 | 17.2 ± 2.2

— US20170071976A1, “PHARMACEUTICAL SOLUTION HAVING ANTI-TUMOR EFFECT-ENHANCING AND TOXICITY-REDUCING EFFECT, AND PHARMACEUTICAL COMPOSITION COMPRISING SAME” (priority 2014, published 2017)
